The values below come from patent publication US6989364B1, “Methods for treating cardiac hypertrophy by administering IFN-γ” (Genentech, Inc., priority 1998, dated 2006).

In data set [1] the test system is adult rat cardiac myocytes. Description: Inhibition of PGF2α-induced spreading response of adult myocytes. Type of data set: cell-based. The protocol: Myocytes were pre-incubated with saline vehicle or IFN-γ (500 U/ml) on day of isolation. A second addition of vehicle or IFN-γ was performed 24h after isolation, along with the addition of either vehicle or PGF2α (10^−7 M). After an additional 72 hr incubation, cells were fixed in glutaraldehyde, stained with eosin Y and viewed by fluorescence microscopy. A, B, C Cardiac myocytes after 4 days in culture: control, PGF2α, and PGF2α+IFN-γ, respectively. D, E, F Histographs showing maximum breadth of rod shaped cardiac myocytes versus percent frequency of breadth occurrence. The maximum breadth of rod-shaped cells was determined by fluorescence microscopy and imaging software. At least 200 rod shaped cells from a single experiment were examined per group.
Myocytes were pre-incubated with saline vehicle or IFN-γ on day of isolation. A second amount of IFN-γ was added 24 hr after isolation, along with the addition of either vehicle or PGF2α (10^−7 M). After an additional 72 hr incubation, cells were fixed in glutaraldehyde, stained with eosin Y and viewed under fluorescence. Quantitation of myocyte morphology: A control, B PGF2α, C PGF2α+IFN-γ (25 U/ml), D PGF2α+IFN-γ (100 U/ml), E PGF2α+IFN-γ (500 U/ml). Histographs showing maximum breadth of rod shaped cardiac myocytes versus percent frequency of breadth occurrence. The maximum breadth of rod-shaped cells was determined by fluorescence microscopy and imaging software. At least 200 rod shaped cells from a single experiment were examined per group.
In this assay, ventricular myocytes are isolated from a single (male Sprague-Dawley) rat, essentially following a modification of the procedure described in detail by Piper et al., “Adult ventricular rat heart muscle cells.” In: Cell Culture Techniques in Heart and Vessel Research, H. M. Piper, ed., Berlin: Spinger-Verlag, 1990, pp. 36–60. This procedure permits the isolation of adult ventricular myocytes and the long-term culture of these cells in the rod-shaped phenotype. […] Piper et al., supra; Lai et al., Am J. Physiol. 1996; 271 (Heart Circ. Phvsiol. 40):H2197–H2208. The inhibition of myocyte spreading induced by PGF2α, or PGF2α analogs, (e.g. fluprostenol) and phenylephrine by various potential inhibitors of cardiac hypertrophy is then tested. A detailed protocol is described in the examples that follow.
Adult myocyte cultures The procedure used for the isolation of ventricular myocytes from adult rats was a modification of a procedure described by Piper et al., supra, and is detailed in Lai et al., supra. For each myocyte preparation, one male Sprague-Dawley rat weighing about 250 g was anesthetized with pentobarbital sodium, and the heart was removed. Extraneous tissue was trimmed from the heart, and it was mounted onto a Langendorff system that was temperature controlled at 37° C. The heart was perfused with about 40 ml of Krebs buffer (110 mM NaCl, 2.6 mM KCl, 1.2 mM KH2PO4, 1.2 mM MgSO4.7H2O, 25 mM NaHCO3 and 11 mM glucose). A solution containing 30 mg of collagenase and 12.5 μl of 100 mM CaCl2 in 50 ml of Krebs buffer was then recirculated through the heart for 30 minutes. The heart was removed from the Langendorff apparatus, and the atria and connective tissues were removed. The ventricles were cut into 2 mm cubes with dissecting scissors, and further digested in a fresh collagenase solution (30 mg collagenase and 400 mg BSA dissolved in Krebs buffer with 12.5 μl of 100 mM CaCl2) for five minutes at 37° C. During the digestion, the tissue suspension was gently band shaken one time per minute. After the digestion, the supernatant was removed and saved, and the remaining tissue was further digested in fresh collagenase solution for an additional five minutes.

For data set [2], the system named is male Sprague/Dawley (SD) rats. Conditions: s.c. twice a day; previous study, Lai et al.; cited from earlier work.
The subject of data set [3] is male Sprague/Dawley (SD) rats. Description: Hemodynamic assessment (MAP) in rats treated with fluprostenol and/or IFN-γ. Type of data set: in vivo, rat. The settings on record: conscious rats, 14 days of treatment (FIG. 5). The protocol:
Hemodynamic assessment Thirteen days after treatment, rats were anesthetized with intraperitoreal injection of ketamine 80 mg/kg (Aveco Co., Inc., Fort Dodge, Iowa) and xylazine 10 mg/kg (Rugby Laboratories, Inc., Rockville Center, N.Y.). A catheter (PE-10 fused with PE 50) filled with heparin-saline solution (50 U/ml) was implanted into the abdominal aorta, via the right femoral artery, for measurement of mean arterial pressure (MAP) and heart rate (HR). The catheter was exteriorized and fixed at the back of the neck.
One day after catheterization, the arterial catheter was connected to a Model CP 10 pressure transducer (Century Technology Company, Inglewood, Calif., USA) that was coupled to a Grass Model 7 polygraph (Grass Instruments, Quincy, Mass., USA). MAP and HR were measured simultaneously in conscious, unrestrained rats.

For data set [4], the system named is male Sprague/Dawley (SD) rats. Description: Cardiac hypertrophy induced by fluprostenol in vivo: body and organ weights. Also on record: species or system rat. The text has this:
This pharmacological model tests the ability of IFN-γ to inhibit cardiac hypertrophy induced in rats (e.g. male Wistar or Sprague-Dawley) by subcutaneous injection of fluprostenol (an agonist analog of PGF2α). It is known that rats with pathologic cardiac hypertrophy induced by myocardial infarction have chronically elevated levels of extractable PGF2α in their myocardium. Lai et al, Am. J. Physiol. (Heart Circ. Physiol.) 271:H2197–H2208 (1996). Accordingly, factors that can inhibit the effects of fluprostenol on myocardial growth in vivo are potentially useful for treating cardiac hypertrophy. The effects of IFN-γ on cardiac hypertrophy are determined by measuring the weight of heart, ventricles, and left ventricle (normalized by body weight) relative to fluprostenol-treated rats not receiving IFN-γ. A detailed description of this assay is provided in the examples.
Animals All experimental procedures conformed to the guiding principles of the American Physiology Society, and were approved by Genentech's Institutional Animal Care and Use Committee. The animals used in this study were male Sprague/Dawley (SD) rats (8 weeks of age, Charles River Breeding Laboratories, Inc.). The animals were acclimated to the facility for at least one week before experiments, fed a pelleted rat chow and water ad libitum, and housed in a light and temperature controlled room.
Administration of fluprostenol and/or IFN-γ Rats received subcutaneous injection of fluprostenol (Cayman Chemical, Ann Arbor, Mich.) at 0.15 mg/kg, recombinant mouse IFN-γ (Genentech, Inc., South San Francisco, Calif.) at 0.08 mg/kg, combination of fluprostenol and IFN-γ, or saline vehicle, twice a day for 14 days. In the IFN-γ and fluprostenol+IFN-γ groups, animals were pretreated with IFN-γ for one day. Body weight was measured before and after treatment. A previous study has shown that the dose of fluprostenol used here is the lowest dose which produces a significant cardiac hypertrophy in rats. Lai et al., supra.
Measurement of organ weights Under anesthesia with ketamine/xylazine, the heart, kidney, and spleen were removed, dissected and weighed. The left ventricle was stored at […] for evaluation of gene expression.
Statistical analyisis Results are expressed as mean±SEM. One way analysis of variance (ANOVA) was performed to assess differences in parameters between groups. Significant differences were then subjected to post hoc analysis using Newman-Keuls method; P<0.05 was considered significant.

The test system of data set [5] is left ventricle of male Sprague/Dawley (SD) rats. Description: Cardiac gene expression (real-time RT-PCR) in rats treated with fluprostenol and/or IFN-γ. Type of data set: in vivo, rat. Conditions: normalized to GAPDH, FIG. 6. The text has this: FIGS. 6A–6D Bargraphs showing the effect of fluprostenol (FLUP) and IFN-γ on: A Skeletal actin (SKA); B Sarcoplasmic reticulum calcium ATPase (SRCA); C Collagen I (COL I); D Atrial natriuretic factor (ANF) expression. Expression levels are normalized to glyceraldehyde-3-phosphate dehydrogenase (GAPDH) message. VEH is vehicle. There were 7 animals per group and the data are presented as the mean±SEM. P<0.05 vs VEH group.
RNA preparation Total RNA was isolated using RNeasy Maxi Columns (Qïägen) according to the manufacturer's instructions.
RT-PCR Real-time RT-PCR (TaqMan) technology was used to compare the gene expression between the various treatment groups. An oligonucleotide probe containing a fluorescent reporter dye, […], at the 3′-end was designed to hybridize to the amplicon defined by two PCR primers. A 3′-blocking phosphate prevents extension of the probe. The reporter dye is released from the probe by the 5′ exonuclease activity of Taq polymerase during the extension phase of PCR reaction. […] The threshold cycle number (Ct), defined as the point where the reporter fluorescence reaches a value greater than 10 times the standard deviation of the baseline, is […] to the amount of amplicon produced from the sample. Since the fluorescence is detected during the exponential phase of the amplification, none of the reaction components are limiting. In each experiment, a control is analyzed that lacks the RNA template to monitor for contamination, and another control is included where the RT step is omitted to eliminate amplification of possible contaminating DNA as the source of the signal. Reactions are optimized to give the greatest fluorescence signal and smallest Ct by titration of magnesium and primer concentrations, and the product is run on an agarose gel to verify the presence of a single band at the predicted molecular weight. […]
Quantitation of the TaqMan results was performed as described by Heid et al., Genome Res. 6:986–994 (1996), with modifications. […]

Setting [6] is: s.c. twice a day for 14 days, fluprostenol 0.15 mg/kg, IFN-γ 0.08 mg/kg, mean ± SEM.

IFN-α: in data set [1], the “Ability of other cytokines to inhibit PGF2α induced myocyte spreading” value was “could not inhibit the spreading response”.

With prostaglandin F2α [PGF2α], in data set [1] (0.1 μM, P<0.001), the “Spreading response of adult myocytes (maximum cell breadth) vs control cells” value is listed as “induced a significant change in the maximum cell breadth”.

As for `O=C(O)CCC/C=C\C[C@@H]1[C@@H](/C=C/[C@@H](O)COc2cccc(C(F)(F)F)c2)[C@H](O)C[C@@H]1O` (racemic) [fluprostenol, reference compound], the “Lowest dose which produces a significant cardiac hypertrophy in rats” value in data set [2] is reported as 0.15 mg/kg. Moreover, the “Mean arterial pressure (MAP) compared to vehicle” value in data set [3] was “significant decline”. Further, the “Ratio of heart, ventricular, and left ventricular weights to body weight (FIG. 4)” value in data set [4] (14 days, fluprostenol and IFN-γ alone vs vehicle, fluprostenol+IFN-γ vs fluprostenol group) is reported as “significant increase”. Also, the “BWO, basal levels of body weight” value in data set [4] (before treatment, mean ± SEM) is given as 292.3 ± 2.2 g. For the same molecule, in data set [4] (setting [6]), the “BW, body weight post treatment” value came to 381.1 ± 4.4 g; the “HW, heart weight” value is reported as 1.000 ± .018 g; the “KW, kidney weight” value was 1.397 ± .038 g; the “KW/BW, kidney weight to body weight” value is 3.632 ± .076 g/kg. In data set [4] (setting [6]), the “LVW, left ventricular weight” value is “.740 ± .013 g”; the “SW, spleen weight” value is recorded as “.880 ± .048 g”; the “SW/BW, spleen weight to body weight” value is recorded as 2.309 ± .130 g/kg; the “VW, ventricular weight” value is given as “.957 ± .017 g”. Further, in data set [4] (setting [6]), the “ΔBW, BW-BWO” value is 91.9 ± 4.0 g. In data set [5], the “Abundance of mRNA for α-skeletal actin, collagen I, and natriuretic factor in the heart vs vehicle” value is “increase in the abundance of mRNA”; the “mRNA for sarcoplasmic reticulum calcium ATPase in the heart vs vehicle” value was “significantly reduced”.

Turning to “IL-6: other cytokine tested for inhibition of the spreading response”, the “Ability of other cytokines to inhibit PGF2α induced myocyte spreading” value in data set [1] is listed as “could not inhibit the spreading response”.

Turning to “IL-1β: other cytokine tested for inhibition of the spreading response”, in data set [1], the “Ability of other cytokines to inhibit PGF2α induced myocyte spreading” value is recorded as “could not inhibit the spreading response”.

For TNF-α, in data set [1], the “Ability of other cytokines to inhibit PGF2α induced myocyte spreading” value is on record as “could not inhibit the spreading response”.

B1: IL-1α: other cytokine tested for inhibition of the spreading response (protein, UniProt P01583 113-271, looked up)
Interleukin-1 alpha: SAPFSFLSNVKYNFMRIIKYEFILNDALNQSIIRANDQYLTAAALHNLDEAVKFDMGAYKSSKDDAKITVILRISKTQLYVTAQDEDQPVLLKEMPEIPKTITGSETNLLFFWETHGTKNYFTSVAHPNLFIATKQDYWVCLAGGPPSITDFQILENQA
B1: the “Ability of other cytokines to inhibit PGF2α induced myocyte spreading” value in data set [1] is “could not inhibit the spreading response”.
